Data reported in PubChem BioAssay (NCI).
“And” between values parts separate entries of the source, which are not always exact repeats. Equal entries are not always repeated.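 Interpolation was linear, between the two tested concentrations surrounding the appropriate level; five concentrations were tested over 48 hours in 96-well plates. Abbreviation: GI50, concentration required for 50% inhibition of growth. Definition used: TGI = concentration required for complete inhibition of growth.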

How the values were obtained:
Assay in all cases: growth of human tumour cells (NCI), 48 h
HCT-15 colon = tested on: HCT-15 colon
MDA-MB-435 = tested on: MDA-MB-435
T-47D breast = tested on: T-47D breast
RPMI-8226 leukemia = tested on: RPMI-8226 leukemia
PC-3 prostate = tested on: PC-3 prostate
OVCAR-8 ovarian = tested on: OVCAR-8 ovarian
NCI-H226 lung = tested on: NCI-H226 lung
DU-145 prostate = tested on: DU-145 prostate
TK-10 renal = tested on: TK-10 renal
NCI/ADR-RES ovarian = tested on: NCI/ADR-RES ovarian

| Structure (SMILES) | GI50 (HCT-15 colon) | TGI (HCT-15 colon) | GI50 (MDA-MB-435) | TGI (MDA-MB-435) | GI50 (T-47D breast) | TGI (T-47D breast) | GI50 (RPMI-8226 leukemia) | TGI (RPMI-8226 leukemia) | GI50 (PC-3 prostate) | TGI (PC-3 prostate) | GI50 (OVCAR-8 ovarian) | TGI (OVCAR-8 ovarian) | GI50 (NCI-H226 lung) | TGI (NCI-H226 lung) | GI50 (DU-145 prostate) | TGI (DU-145 prostate) | GI50 (TK-10 renal) | TGI (TK-10 renal) | GI50 (NCI/ADR-RES ovarian) | TGI (NCI/ADR-RES ovarian) |
| --- | --- | --- | --- | --- | --- | --- | --- | --- | --- | --- | --- | --- | --- | --- | --- | --- | --- | --- | --- | --- |
| Nc1nc(OCc2ccccc2)c2[nH]cnc2n1 | 25.5 µM and 21.7 µM | 400 µM and 222 µM | 41.1 µM and 26.9 µM | 143 µM | 24.9 µM and 23.2 µM | 205 µM | 50 µM and 21.6 µM | 69 µM | 53.7 µM | 628 µM | 64.8 µM and 63 µM | 400 µM and 492 µM | 36.8 µM and 16.3 µM | 119 µM and 82 µM | 33.6 µM and 30.1 µM | 266 µM | 56.4 µM and 11.7 µM | 183 µM and 104 µM | 97.2 µM and 84.9 µM | 414 µM |
| CN(C)CCCn1c(=O)c2ccccc2c2ccccc21 | 13.8 µM | > 100 µM | 11.8 µM | 26.6 µM | 25.2 µM | > 100 µM | 26.9 µM | 77.7 µM | 18.2 µM | 54.2 µM | 7.03 µM | > 100 µM | 12.1 µM | 38.5 µM | 18.5 µM | 52 µM | 20.3 µM | > 100 µM | 10.9 µM | > 100 µM |
| CCCN(CCS(C)(=O)=O)Cc1ccc(-c2ccc3ncnc(Nc4ccc(OCc5cccc(F)c5)c(Cl)c4)c3c2)o1 | > 25 µM | > 25 µM | > 25 µM | > 25 µM | 1.82 µM | 24.7 µM | > 20.8 µM | > 25 µM | > 25 µM | > 25 µM | > 25 µM | > 25 µM | > 25 µM | > 25 µM | > 22.4 µM | > 25 µM | 0.175 µM | > 25 µM | 12 µM | > 25 µM |
| Fc1ccc(/C=N/n2c(-c3ccc(F)c(Cl)c3)nn(CNc3ccccc3C(F)(F)F)c2=S)cc1 | 79.4 µM | > 100 µM | 43.1 µM | > 100 µM | 41.3 µM | > 100 µM | 38.6 µM | > 100 µM | 37.4 µM | > 100 µM | 43.1 µM | > 100 µM | 69.5 µM | > 100 µM | > 100 µM | > 100 µM | 38.7 µM | > 100 µM | 41.2 µM | > 100 µM |
| Cc1cc(S(=O)(=O)/N=C(/N)Nc2ccccc2O)c(SCc2ccccc2)cc1Cl | 12.1 µM | 28 µM | 13.5 µM | 32 µM | 12.2 µM | 31.4 µM | 11.4 µM | 52.3 µM | 13.9 µM | 32.4 µM | 12.9 µM | 36 µM | 33.1 µM | > 100 µM | 23.9 µM | 79.5 µM | 22.9 µM | 41.2 µM | 16.7 µM | 36.6 µM |
